Where two headings read alike, the source gives them in different places.
Legend:
[1] = system: human colon carcinoma HT29; experiment: Proliferation assay (IC50) under aerobic and hypoxic conditions, HT29; format: cell-based; details: for IC50: Homo sapiens, 4 h drug exposure, sulforhodamine B; for HCR: hypoxic cytotoxicity ratio = IC50 aerobic/IC50 hypoxic
Description: (§1) Compounds representative of the invention were evaluated under both aerobic and hypoxic conditions in a proliferation assay (IC50), using two cell lines: human colon carcinoma HT29, and human cervical carcinoma SiHa (Table 1).
(§2) Drug exposures were performed in 96-well plates (Nunc) either using a 37 DC humidified incubator (20% O2, 5% CO2) or in the incubator compartment (37° C.) of an anaerobic chamber (Shell Lab) where palladium catalyst scrubbed gas (90% N2, 5% H2, 5% CO2) ensures severe anoxia (<0.001% O2). For each experiment, compounds were simultaneously tested under both oxic and hypoxic conditions and included TPZ as an internal control. An 8-methyl-5-nitroquinoline derivative, SN 24349, known to require very low oxygen concentrations for bioactivation (Siim et al., Br. J. Cancer 1994, 70, 596-603) was used to confirm that strict hypoxia was present during the experiment. […] Cell cultures were grown in αMEM (Gibco) containing 5% heat inactivated FCS and maintained in exponential growth phase. For each individual experiment an appropriate number of cells were seeded (HT29=1100; SiHa=1500) into wells in αMEM+10% FCS+10 mM added glucose+100 μM 2′-deoxycytidine (2′dCyd), and allowed to attach for 2-3 h. High glucose (final concentration 17 mM) and the presence of 2′-dCyd minimize hypoxia-induced cell cycle arrest. Cultures were then exposed to drugs, using 3-fold serial dilutions in duplicate, for a further 4 h. Subsequently cells were washed free of compound using complete media (without glucose/2′-dCyd) and allowed to grow for 5 (oxic) or 6 (anoxic) days. Plates were stained with sulforhodamine B as described previously (Wilson et al., J. Med. Chem. 1989, 32, 31-38) and IC50 values determined.
(§3) HCR=Hypoxic cytotoxicity ratio is defined as the ratio of IC50 values under aerobic and hypoxic conditions (IC50 aerobic/IC50 hypoxic).

[2] = system: human cervical carcinoma SiHa; experiment: Proliferation assay (IC50) under aerobic and hypoxic conditions, SiHa; format: cell-based; details: for IC50: Homo sapiens, 4 h drug exposure, sulforhodamine B; for HCR: hypoxic cytotoxicity ratio = IC50 aerobic/IC50 hypoxic
Description: as §1, §2, §3

[3] = HT-29, hypoxic (anaerobic chamber, <0.001% O2), then 6 days growth, read-out: IC50 (μM) hypoxic
[4] = HT-29, oxic (20% O2), then 5 days growth, read-out: IC50 (μM) oxic
[5] = hypoxic (anaerobic chamber, <0.001% O2), then 6 days growth, read-out: IC50 (μM) hypoxic
[6] = oxic (20% O2), then 5 days growth, read-out: IC50 (μM) oxic

Row | SMILES | IC50 [1, 3] [µM] | IC50 [1, 4] [µM] | HCR [1] | IC50 [2, 5] [µM] | IC50 [2, 6] [µM] | HCR [2] | melting point
1 | CN(C)CCNc1n[n+]([O-])c2cc3c(cc2[n+]1[O-])CCO3 [Compound 198, N^1-(1,4-Dioxido-6,7-dihydrofuro[3,2-g][1,2,4]benzotriazin-3-yl)-N^2,N^2-dimethyl-1,2-ethanediamine] | 2.4 ± 0.1 | 61 ± 6 | 23 ± 0.2 | 0.3 ± 0.02 | 36 ± 10 | 87 ± 9 | 149 to 151 °C
2 | CCc1n[n+]([O-])c2cc3c(cc2[n+]1[O-])CC(CO)C3 (stereo not shown) [Compound 136, (3-Ethyl-1,4-dioxido-7,8-dihydro-6H-indeno[5,6-e][1,2,4]triazin-7-yl)methanol] | 17.1 | 774 ± 8 | 45 | 6.5 ± 0.2 | 314 ± 60 | 48 ± 8 | 157 to 158 °C
3 | Nc1n[n+]([O-])c2cc3c(cc2[n+]1[O-])OCC3 [Compound 205, 7,8-Dihydrofuro[2,3-g][1,2,4]benzotriazin-3-amine 1,4-Dioxide] | 117 | 495 | 4 | 23 | > 500 |  | > 300 °C (dec.)
4 | CCN(CC)CCNc1n[n+]([O-])c2cc3c(cc2[n+]1[O-])OCC3 [Compound 210, N^1-(1,4-Dioxido-7,8-dihydrofuro[2,3-g][1,2,4]benzotriazin-3-yl)-N^2,N^2-diethyl-1,2-ethanediamine] | 9.6 ± 3.6 | 708 ± 178 | 113 ± 53 | 3.4 ± 0.7 | 376 ± 10 | 122 ± 25 | 187 to 190 °C
5 | [O-][n+]1nc(NCCO)[n+]([O-])c2cc3c(cc21)CCC3 [Compound 25, 2-[(1,4-Dioxido-7,8-dihydro-6H-indeno[5,6-e][1,2,4]triazin-3-yl)amino]ethanol] | 47 ± 4 | 1520 | 32 | 17.7 ± 0.6 | 751 | 42 | 187 to 188 °C
6 | [O-][n+]1nc(CCCO)[n+]([O-])c2cc3c(cc21)CCC3 [Compound 71, 3-(1,4-Dioxido-7,8-dihydro-6H-indeno[5,6-e][1,2,4]triazin-3-yl)-1-propanol] | 15 ± 3 | 874 ± 119 | 57 ± 1 | 6.9 ± 3.3 | 680 ± 95 | 114 ± 31 | 153 to 155 °C
7 | [O-][n+]1nc(NCCCN2CCOCC2)[n+]([O-])c2cc3c(cc21)CCC3 [Compound 61, N-[3-(4-Morpholinyl)propyl]-7,8-dihydro-6H-indeno[5,6-e][1,2,4]triazin-3-amine 1,4-Dioxide] | 21 ± 8 | 385 ± 14 | 20 ± 5 | 8.8 ± 1.7 | 357 ± 35 | 44 ± 12 | 158 to 160 °C
8 | CN(C)CCNc1n[n+]([O-])c2cc3c(cc2[n+]1[O-])CCCO3 [Compound 242, N^1-(1,4-Dioxido-7,8-dihydro-6H-chromeno[6,7-e][1,2,4]triazin-3-yl)-N^2,N^2-dimethyl-1,2-ethanediamine] | 1.5 | 38 ± 10 | 19 | 0.31 | 25 ± 6 | 60 | 152 to 154 °C
9 | COCCN(C)CCNc1n[n+]([O-])c2cc3c(cc2[n+]1[O-])CCC3 [Compound 31, N^1-(1,4-Dioxido-7,8-dihydro-6H-indeno[5,6-e][1,2,4]triazin-3-yl)-N^2-(2-methoxyethyl)-N2-methyl-1,2-ethanediamine] | 5.9 ± 0.8 | 172 ± 100 | 26 ± 12 | 2.5 ± 0.8 | 162 ± 48 | 67 ± 2 | 58 to 61 °C
10 | COC1CN(CCNc2n[n+]([O-])c3cc4c(cc3[n+]2[O-])CCC4)C1 [Compound 35, N-[2-(3-Methoxy-1-azetidinyl)ethyl]-7,8-dihydro-6H-indeno[5,6-e][1,2,4]triazin-3-amine 1,4-Dioxide] | 3.4 ± 0.1 | 165 ± 10 | 49 ± 5 | 1.8 ± 0.2 | 108 ± 8 | 61 ± 10 | 152 °C (dec.)
11 | CC1Cc2cc3c(cc2C1)[n+]([O-])c(CCCN1CCOCC1)n[n+]3[O-] (stereo not shown) [Compound 104, 7-Methyl-3-[3-(4-morpholinyl)propyl]-7,8-dihydro-6H-indeno[5,6-e][1,2,4]triazine 1,4-Dioxide] | 2.9 ± 0.1 | 210 ± 38 | 72 ± 13 | 1.7 ± 0.2 | 226 ± 14 | 134 ± 4 | 119 to 121 °C
12 | CCCN(CCC)CCNc1nc2ccc3c(c2[n+]([O-])n1)CCC3 [Compound 11, N^1-(1-Oxido-8,9-dihydro-7H-indeno[5,4-e][1,2,4]triazin-3-yl)-N^2,N^2-dipropyl-1,2-ethanediamine] | 12.4 | 99 ± 9 | 7 | 3.3 ± 0.3 | 74 ± 27 | 23 ± 10 | 133 to 135 °C
13 | [O-][n+]1cn[n+]([O-])c2cc3c(cc21)CCC3 [Compound 65, 7,8-Dihydro-6H-indeno[5,6-e][1,2,4]triazine 1,4-Dioxide] | 2.4 ± 0.4 | 401 ± 236 | 226 ± 153 | 1 ± 0.5 | 80 ± 7 | 155 ± 117 | 179 to 181 °C
14 | CCN(CC)CCNc1n[n+]([O-])c2c3c(ccc2[n+]1[O-])CCC3 [Compound 9, N^1,N^1-Diethyl-N^2-(1,4-dioxido-8,9-dihydro-7H-indeno[5,4-e][1,2,4]triazin-3-yl)-1,2-ethanediamine] | 4.2 ± 1.5 | 72 ± 22 | 17 ± 5 | 0.9 ± 0.2 | 59 ± 4 | 64 ± 4 | 138 to 141 °C
15 | CCNc1n[n+]([O-])c2cc3c(cc2[n+]1[O-])CN(C)CC3 [Compound 259, N-Ethyl-7-methyl-6,7,8,9-tetrahydro[1,2,4]triazino[6,5-g]isoquinolin-3-amine 1,4-Dioxide] | 2.6 ± 0.03 | 154 ± 19 | 59 ± 7 | 1.1 ± 0.5 | 111 ± 51 | 100 ± 2 | 120 to 124 °C
16 | [O-][n+]1nc(NCCN2CCCCC2)[n+]([O-])c2cc3c(cc21)CCC3 [Compound 37, N-[2-(1-Piperidinyl)ethyl]-7,8-dihydro-6H-indeno[5,6-e][1,2,4]triazin-3-amine 1,4-Dioxide] | 5.8 ± 2.9 | 186 ± 58 | 49 ± 35 | 1.3 ± 0.4 | 101 ± 25 | 143 | 165 to 168 °C
17 | COCCCN(C)CCNc1n[n+]([O-])c2cc3c(cc2[n+]1[O-])CCC3 [Compound 33, N^1-(1,4-Dioxido-7,8-dihydro-6H-indeno[5,6-e][1,2,4]triazin-3-yl)-N^2-(3-methoxypropyl)-N^2-methyl-1,2-ethanediamine] | 6.3 ± 2.1 | 315 ± 84 | 52 ± 4 | 2 ± 1.1 | 152 ± 38 | 92 ± 30 | 129 to 131 °C
18 | CC1Cc2cc3c(cc2C1)[n+]([O-])c(NCCCN1CCOCC1)n[n+]3[O-] (stereo not shown) [Compound 99, 7-Methyl-N-[3-(4-morpholinyl)propyl]-7,8-dihydro-6H-indeno[5,6-e][1,2,4]triazin-3-amine 1,4-Dioxide] | 19 ± 6 | 459 ± 93 | 25 ± 2 | 8.4 ± 3.2 | 415 ± 133 | 50 ± 3 | 161 to 163 °C
19 | CN(C)CCNc1n[n+]([O-])c2cc3c(cc2[n+]1[O-])CCCCC3 [Compound 189, N^1-(1,4-Dioxido-7,8,9,10-tetrahydro-6H-cyclohepta[g][1,2,4]benzotriazin-3-yl)-N^2,N^2-dimethyl-1,2-ethanediamine] | 5.2 ± 0.9 | 250 ± 119 | 54 ± 32 | 1.2 ± 0.1 | 99 ± 32 | 88 ± 32 | 131 to 133 °C
20 | [O-][n+]1nc(CCCN2CCOCC2)[n+]([O-])c2cc3c(cc21)CC(CO)C3 (stereo not shown) [Compound 141, {3-[3-(4-Morpholinyl)propyl]-1,4-dioxido-7,8-dihydro-6H-indeno[5,6-e][1,2,4]triazin-7-yl}methanol] | 2.4 ± 0.1 | 294 ± 34 | 121 ± 14 | 1.8 ± 0.2 | 377 | 206 | 112 to 114 °C

From patent US7989451B2, “Tricyclic 1,2,4-triazine oxides and compositions for therapeutic use in cancer treatments” (Auckland Uniservices Limited, priority 2005, dated 2011)
